Measurements from patent US8664276B2, “Stilbene analogs and methods of treating cancer” (University of Kentucky Research Foundation, priority 2011, dated 2014).
“Also recorded” adds a separate entry of the source.

Tests used:
LS174 tumor xenografts = experiment: LS174 tumor xenograft in nude mice; format: in vivo
Protocol: Tumor xenograft in nude mice. LS174 or HT29 colon cancer cells (2×10^6) were injected subcutaneously into both flanks of 6-8 week C57BL/6J athymic nude mice as described in Zhang et al., Mol Cell Biol 2006, 26, 2055-2064. Compound 4r or 4dd was dissolved in corn oil or PEG400. The mice were treated with 20 mg/kg/day of 4r by ip injection or gavage (50 μl/mouse). Control mice were treated with same volume of corn oil or PEG400. The body weight and tumor growth were analyzed twice weekly for one month. Tumor size was measured using digital caliper. The tumor volume was calculated by the formula: V=½LW^2 (mm^3).
In this example, the effects of the stilbene analogs of the present disclosure on CRC cells growth was analyzed. […] To test the effects of compound 4r on tumor growth in vivo, LS174 cells were injected subcutaneously into the flanks of athymic nude mice, which had been randomized into two groups. One group of mice was treated with compound 4r (20 mg/kg/day) dissolved in corn oil by intraperitoneal (ip) injection. The control mice were treated with the same volume of corn oil (50 μL) by ip injection. The mice were weighted and tumors measured twice weekly.

β-catenin target genes = experiment: RT-PCR of β-catenin target genes in LS174 cells; format: cell-based; settings: RT-PCR
Protocol: RT-PCR. LS174 cells were treated with DMSO or Wnt inhibitors. After 36 h, RNA was isolated using the RNeasy kit (Qiagen). RT-PCR was performed as described in Zhang et al., Mol Cell Biol 2006, 26, 2055-2064. The following primers were used: β-actin: 5′-CAACCGCGAGAAGATGAC-3′ (SEQ ID NO:01), 5′-AGGAAGGCTGGAAGAGTG-3′ (SEQ ID NO:02); surivivin: 5′-[…]-3′ (SEQ ID NO:03), 5′-[…]-3′ (SEQ ID NO:04); c-Myc: 5′-TGGGCTGTGAGGAGGTTTG-3′ (SEQ ID NO:05), 5′-TATGTGGAGCGGCTTCTCG-3′ (SEQ ID NO:06); Axin2: 5′-[…]-3′ (SEQ ID NO:07), 5′-[…]-3′ (SEQ ID NO:08); TCF4: 5′-[…]-3′ (SEQ ID NO:09), 5′-[…]-3′ (SEQ ID NO:10); pygopus2: 5′-GGCCGGTCTGCAAATGAAG-3′ (SEQ ID NO:11), 5′-TCCACCTCCAGTGCTGTAG-3′ (SEQ ID NO:12); Lgr5: 5′-[…]-3′ (SEQ ID NO:13), 5′-[…]-3′ (SEQ ID NO:14); CD44: 5′-[…]-3′ (SEQ ID NO:15), 5′-[…]-3′ (SEQ ID NO:16); Ki67: 5′-[…]-3′ (SEQ ID NO:17), 5′-[…]-3′ (SEQ ID NO:18).
(§1) Cyclin B1 levels were decreased, whereas p21^WAF1/CIP1 levels increased, consistent with the fact that p21^WAF1/CIP1 expression is repressed by c-Myc. β-catenin levels were not affected by resveratrol. Next, the mRNA levels of β-catenin target genes were analyzed using RT-PCR. Expression of survivin, Lgr5, CD44, and c-Myc were decreased in resveratrol-treated cells.

[1] = test system: Wnt target genes, Axin2 and c-Myc; experiment: Western blot of Wnt target proteins in LS174 CRC cells; format: cell-based
Protocol: Western blot. Western blots were performed using the following antibodies: β-catenin (Sigma, C2206), c-Myc (Epitomics, 1472-1), Axin2 (Cell Signaling, 2151), β-Actin (Sigma, A1978), TCF4 (Epitomics, 2114-1) and pygopus2 (Santa Cruz, sc-74878), Cyclin D1 (Cell signaling, 2926).
as §1
A panel of stilbene analogs was designed and synthesized (FIGS. 2, 3, 5A and 6A). […] However, the solubility of 4d was poor and it was not effective below 10 μM concentrations (data not shown). To improve its solubility and activity, compound 4d was modified with 2′-fluoro 4e, 3′-fluoro 4f and 4′-fluoro 4g substituents (FIG. 5D). Both compounds 4e and 4f had good activity at 10 μM, (E)-4-(2-fluorostyryl)-N,N-dimethylaniline.
Western blot and cell proliferation assay. The activity of fluorinated N,N-dialkylaminostilbenes (FIDAS or FIDAS agents) on Wnt signaling activity in cancer cells were analyzed by Western blot with antibodies against Wnt target genes, such as c-Myc, Axin2. The effects of FlDAS agents on cancer cell growth were analyzed using Cell Viability Analyzer (Beckman Coulter, Vi-Cell XR). These assays have been described previously (see Zhang et al., J. of Med. Chem. 54, 1288-1297 (2011)).

CN(C)c1ccc(/C=C/c2c(F)cccc2F)cc1 [4r, (E)-4-(2,6-Difluorostyryl)-N,N-dimethylaniline]
body weight versus control mice (LS174 tumor xenografts; 20 mg/kg/day ip in corn oil, within one month): no significant difference | growth of tumor xenografts (LS174 tumor xenografts; LS174, 20 mg/kg/day ip in corn oil): significantly inhibited | transcription of TCF4 genes (β-catenin target genes): inhibited | transcription of Wnt target genes (β-catenin target genes): strongly inhibited | transcription of pygopus2 genes (β-catenin target genes): no significant effects | repression of Wnt target genes at 10 μM ([1]; 10 μM, CRC cells): repress Wnt target genes; also recorded: reduced the protein levels | Wnt inhibitory activity in Western blot, qualitative or relative to a comparator ([1]; CRC cells): more active than compound 4e; also recorded: best activity | protein levels of TCF4 and pygopus2 ([1]; CRC cells): reduced | inhibition of Wnt target genes at 2.5 μM ([1]; LS174 CRC cells, 2.5 μM): significantly inhibited
